This data set is described as follows: wn = mass fraction of the nth substance listed. Conditions: 323.15 K, 101.3 kPa, Liquid, Vibrating tube method.

± gives the expanded uncertainty stated by the source.

The term mass density denotes the mass of a sample divided by its volume.

Take `O=[PH2][O-].O=[PH2][O-].[Mg+2]` [magnesium hypophosphite] + O: the mass density (w1 = 0.2243) is 1167.5 ± 0.4 kg/m3.

Consider `[Cl-].[Cl-].[Mg+2]` [magnesium chloride] + O, for which the mass density (w1 = 0.3732) was found to be 1343.2 ± 0.9 kg/m3.

As for `O=[PH2][O-].[Na+]` [sodium phosphinate] + O, the mass density (w1 = 0.5786) came out at 1438.8 ± 1.1 kg/m3.

Values taken from the NIST ThermoML archive (doi:10.1021/acs.jced.6b00828).
